Counter-ions that a name gives are not always drawn. Like-named read-outs stand apart in the source and are kept apart here.
Legend:
[1] = parameters: method as in earlier work; conditions: cited from earlier work
[2] = parameters: method as in earlier work; conditions: cited from earlier work; remark: listed apart in the source
[3] = experimental determination of log Pm/w using HMLC; type: physicochemical; conditions: for experimental log Pm/w, column temperature 25°C: pH 6, 25°C; for experimental log Pm/w, column temperature 30°C: pH 6, 30°C; for experimental log Pm/w, column temperature 35°C: pH 6, 35°C
[4] = experimental determination of log Pm/w using MELC; type: physicochemical; conditions: 0.18 M SDS, 10% acetonitrile, 1% octane, 0.3% TEA, pH 6, column 40°C
Experimental: (§1) Three micelle-based mobile phases were developed for the separation of this mixture. In all three cases, the separation was carried out on a Prontosil Kromaplus C18 column (250 × 4.6 mm) of particle size 5 µm, Leonberg, Germany, which was kept at 40°C. […] Separation of the three drugs was accomplished using 254 nm as a detection wavelength, adopting a flow rate of 1.5 ml min^−1.
(§2) Different actual SDS concentrations for each mobile phase (after subtracting the CMC of SDS at 40°C) were plotted versus the inverse of the capacity factor for each drug, using the optimized chromatographic conditions for MLC, HMLC and MELC, where pH was adjusted to 6, and the column temperature was kept at 40°C for the three separation methods.

[5] = experimental determination of log Pm/w using MLC; type: physicochemical; conditions: 0.18 M SDS, 0.3% TEA, pH 6, column 40°C
Experimental: as §1, §2

[6] = HMLC, pH 3, 40°C, read-out: log P (experimental log Pm/w) pH 3
[7] = HMLC, pH 4, 40°C, read-out: log P (experimental log Pm/w) pH 4

SMILES	reported log P [1]	pka [2]	experimental log Pm/w, column temperature 25°C ([3]; HMLC)	experimental log Pm/w, column temperature 30°C ([3]; HMLC)	experimental log Pm/w, column temperature 35°C ([3]; HMLC)	experimental log Pm/w MELC [4]	experimental log Pm/w MLC [5]	chromatographic logP [3, 6]	chromatographic logP [3, 7]	experimental log Pm/w HMLC ([3]; 0.18 M SDS, 10% acetonitrile, 0.3% TEA, pH 6, column 40°C)	chromatographic logP ([3]; HMLC, pH 5, 40°C, read-out: log P (experimental log Pm/w) pH 5)	experimental log Pm/w, column temperature 40°C ([3]; HMLC, pH 6, 40°C)	chromatographic logP ([3]; HMLC, pH 6, 40°C, read-out: log P (experimental log Pm/w) pH 6)
CCCN[C@H]1CCc2nc(N)sc2C1 (racemic) [PRM, (RS)-4,5,6,7-tetrahydro-N-6-propyl-2,6-benzothiazolediamine dihydrochloride monohydrate]	2.34	10.5	1.1714	2.197	2.228	1.316	0.9385						
O=C1CCc2ccc(OCCCCN3CCN(c4cccc(Cl)c4Cl)CC3)cc2N1 [ARP, 7-[4-[4-(2,3-dichlorophenyl)piperazin-1-yl]butoxy]-3,4-dihydro-1H-quinolin-2-one]		10	3.12	3.66		2.275	2.182	4.23	4.52				
c1cnc(N2CCN(Cc3ccc4c(c3)OCO4)CC2)nc1 [PRB, 2-[4-(1,3-benzodioxol-5-ylmethyl)piperazin-1-yl] pyrimidine]	1.8	6.95	0.976		1.208	1.491	0.7334	0.86	1.09	1.648	1.1	1.648	1.65

From publication PMC8150020, “Studying the suitability of hybrid micelle liquid chromatography for estimating the lipophilicity of some partial dopamine agonists used to attain the reward circuit” (Royal Society Open Science, 2021)
